# According to US8420607B2 (priority 2006, dated 2013):
# Key:
# [1] = system: rabbit anti-live spore B. anthracis Sterne 34F2 antiserum; format: binding
# [2] = system: rabbit anti-B. anthracis live spore antiserum IgG; format: binding
# [3] = system: anti-anthrose IgG in rhesus macaque sera; format: binding, rhesus macaques
# [4] = system: rabbit anti-irradiated spore B. anthracis Sterne 34F2 antiserum; format: binding
# [5] = system: IgG antibodies of rabbit anti-live spore, anti-irradiated spore and anti-polysaccharide-KLH antisera; format: binding
# [6] = system: rabbit anti-spore serum (live spore antiserum); format: binding
molecule,measurement,setting,value
"COC1C(OC2C(O)C(C)OC(OC3C(O)C(C)OC(OCCCN)C3O)C2O)OC(C)C(NC(C)=O)C1O [analogue 4, 3-aminopropyl O-(4-acetamido-2-O-methyl-4,6-dideoxy-β-D-glucopyranosyl)-(1→3)-O-(α-L-rhamnopyranosyl)-(1→3)-β-L-rhamnopyranoside]",Reduction in reporter signal (OD) compared to the control,[1],17%
"CO[C@H]1[C@H](O[C@@H]2[C@@H](O)[C@H](C)O[C@@H](O[C@@H]3[C@@H](O)[C@H](C)O[C@@H](OCCCN)[C@@H]3O)[C@@H]2O)O[C@H](C)[C@@H](NC(=O)CC(C)(C)O)[C@@H]1O [trisaccharide 1, 3-aminopropyl O-(4-(3-hydroxy-3-methylbutamido)-2-O-methyl-4,6-dideoxy-β-D-glucopyranosyl)-(1→3)-O-(α-L-rhamnopyranosyl)-(1→3)-α-L-rhamnopyranoside]",Inhibition of antiserum binding to B. anthracis Pasteur HF-PS-BSA,[2],no inhibition was observed
same,Inhibition of anti-anthrose response measured by ELISA,[3],specifically inhibited
same,Inhibition of serum binding to KLH-A-3,[3],inhibited binding
same,Inhibition of serum binding to KLH-conjugated trisaccharide,[3],Binding could be specifically inhibited
same,Inhibition of interaction of antisera from rabbits immunized with irradiated spores,[4],could also be inhibited in a dose response manner
same,Drop in OD by competing free trisaccharide,[1],significant drop in OD
"CC1OC(OC2C(O)C(C)OC(OCCCN)C2O)C(O)C(OC2OC(C)C(NC(=O)CC(C)(C)O)C(O)C2O)C1O [trisaccharide 2, 3-aminopropyl O-(4-(3-hydroxy-3-methylbutamido)-4,6-dideoxy-β-D-glucopyranosyl)-(1→3)-O-(α-L-rhamnopyranosyl)-(1→3)-α-L-rhamnopyranoside]",Relative recognition by antibodies elicited by the live spore vaccine,[5],recognized trisaccharide 2 much better than 1
"COC1C(OC2C(O)C(C)OC(OC3C(O)C(C)OC(OCCCN)C3O)C2O)OC(C)C(NC(=O)CC(C)C)C1O [trisaccharide 3, 3-aminopropyl O-(4-(3-methylbutamido)-2-O-methyl-4,6-dideoxy-β-D-glucopyranosyl)-(1-→3)-O-(α-L-rhamnopyranosyl)-(1→3)-α-L-rhamnopyranoside]",Reduction in reporter signal (OD) compared to the control,[1],85%
maltoheptaose [reference compound],Inhibition of antiserum binding to B. anthracis HF-PS-BSA,[6],no significant inhibition
